Experimental data as given in ChEMBL document CHEMBL1201862, “PubChem BioAssay data set” (2004).
Activity calls are given as the source filed them.

Experiments:
Format in all cases: functional
[1] = target: Dual specificity mitogen-activated protein kinase kinase 1 (Homo sapiens, UniProt Q02750); assay: Navigating the Kinome. Panel member name: MAP2K1
[2] = target: Tyrosine-protein kinase ABL1 (Homo sapiens, UniProt P00519)
[3] = target: T1, cAMP-dependent protein kinase catalytic subunit PRKX (Homo sapiens, UniProt P51817)
T1 sequence (P51817 whole entry): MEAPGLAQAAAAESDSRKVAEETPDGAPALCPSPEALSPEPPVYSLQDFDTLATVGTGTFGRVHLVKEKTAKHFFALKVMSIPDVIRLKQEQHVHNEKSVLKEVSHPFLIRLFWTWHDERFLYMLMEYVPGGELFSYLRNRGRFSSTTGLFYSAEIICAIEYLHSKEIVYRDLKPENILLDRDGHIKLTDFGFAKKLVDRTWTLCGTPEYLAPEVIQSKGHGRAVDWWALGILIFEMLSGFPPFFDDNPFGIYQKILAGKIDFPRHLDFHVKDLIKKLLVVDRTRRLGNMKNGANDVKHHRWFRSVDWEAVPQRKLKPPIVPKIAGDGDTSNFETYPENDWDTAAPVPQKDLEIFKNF

[4] = target: Leucine-rich repeat serine/threonine-protein kinase 2 (Homo sapiens, UniProt Q5S007);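 further: value from a broad kinome-wide panel profiling study in which LRRK2 was one of the kinases tested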
[5] = target: Leukocyte tyrosine kinase receptor (Homo sapiens, UniProt P29376); assay: Navigating the Kinome. Panel member name: LTK
Activin receptor type-1 = target: T2, Activin receptor type-1 (Homo sapiens, UniProt Q04771); assay: Navigating the Kinome. Panel member name: ACVR1
T2 sequence (Q04771 whole entry): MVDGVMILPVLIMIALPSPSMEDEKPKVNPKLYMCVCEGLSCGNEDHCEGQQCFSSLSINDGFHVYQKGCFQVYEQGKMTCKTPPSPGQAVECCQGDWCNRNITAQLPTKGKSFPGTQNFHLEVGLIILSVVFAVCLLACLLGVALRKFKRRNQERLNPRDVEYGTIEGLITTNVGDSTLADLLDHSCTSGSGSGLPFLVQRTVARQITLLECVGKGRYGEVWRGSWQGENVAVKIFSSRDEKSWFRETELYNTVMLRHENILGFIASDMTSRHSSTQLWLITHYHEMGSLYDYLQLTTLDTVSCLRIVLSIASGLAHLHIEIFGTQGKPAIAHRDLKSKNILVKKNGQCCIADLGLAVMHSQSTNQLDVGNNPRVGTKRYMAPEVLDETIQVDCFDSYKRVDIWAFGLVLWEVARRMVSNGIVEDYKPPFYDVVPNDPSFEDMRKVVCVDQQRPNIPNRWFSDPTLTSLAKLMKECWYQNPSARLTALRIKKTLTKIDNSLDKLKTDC

[6] = target: Platelet-derived growth factor receptor alpha (Homo sapiens, UniProt P16234); assay: Navigating the Kinome. Panel member name: PDGFRA
[7] = target: Vascular endothelial growth factor receptor 2 (Homo sapiens, UniProt P35968)
[8] = target: Tyrosine-protein kinase BTK (Homo sapiens, UniProt Q06187)
[9] = target: T3, Receptor-type tyrosine-protein kinase FLT3 (Homo sapiens, UniProt P36888);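 further: FLT3 was tested as one member of a kinome-wide kinase panel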
T3 sequence (P36888 whole entry): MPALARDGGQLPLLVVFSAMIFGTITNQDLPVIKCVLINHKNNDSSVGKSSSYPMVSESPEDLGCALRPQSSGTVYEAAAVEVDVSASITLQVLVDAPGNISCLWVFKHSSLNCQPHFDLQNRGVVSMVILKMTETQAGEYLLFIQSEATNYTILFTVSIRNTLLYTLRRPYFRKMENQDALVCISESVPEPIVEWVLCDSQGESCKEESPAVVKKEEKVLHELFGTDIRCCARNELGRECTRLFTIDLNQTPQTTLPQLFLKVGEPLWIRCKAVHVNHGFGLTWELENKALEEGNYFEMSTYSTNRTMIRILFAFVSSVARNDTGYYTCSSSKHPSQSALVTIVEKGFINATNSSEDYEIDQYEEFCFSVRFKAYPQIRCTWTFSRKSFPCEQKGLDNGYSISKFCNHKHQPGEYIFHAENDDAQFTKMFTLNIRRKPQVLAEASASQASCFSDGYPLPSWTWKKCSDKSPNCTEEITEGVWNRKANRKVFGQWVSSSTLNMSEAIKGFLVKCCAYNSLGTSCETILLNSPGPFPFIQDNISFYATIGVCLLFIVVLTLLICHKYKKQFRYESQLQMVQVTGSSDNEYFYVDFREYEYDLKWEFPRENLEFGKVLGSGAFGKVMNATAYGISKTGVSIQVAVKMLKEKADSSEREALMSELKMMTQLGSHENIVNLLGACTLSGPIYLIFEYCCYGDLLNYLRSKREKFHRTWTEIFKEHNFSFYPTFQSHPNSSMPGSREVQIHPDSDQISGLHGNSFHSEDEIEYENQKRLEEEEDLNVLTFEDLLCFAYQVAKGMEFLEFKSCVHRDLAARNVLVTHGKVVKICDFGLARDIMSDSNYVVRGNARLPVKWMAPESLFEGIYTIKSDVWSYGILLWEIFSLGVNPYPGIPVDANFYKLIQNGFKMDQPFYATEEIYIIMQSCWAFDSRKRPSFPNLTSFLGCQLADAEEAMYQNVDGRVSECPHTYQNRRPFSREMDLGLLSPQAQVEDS

[10] = target: Serine/threonine-protein kinase TBK1 (Homo sapiens, UniProt Q9UHD2); assay: Navigating the Kinome. Panel member name: TBK1
Aurora kinase B = Aurora kinase B (Homo sapiens, UniProt Q96GD4)
[11] = target: Dual specificity mitogen-activated protein kinase kinase 2 (Homo sapiens, UniProt P36507); assay: Navigating the Kinome. Panel member name: MAP2K2
[12] = target: Mitogen-activated protein kinase 14 (Homo sapiens, UniProt Q16539);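 further: part of a kinome-wide panel, MAPK14 entry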
[13] = target: Mitogen-activated protein kinase 9 (Homo sapiens, UniProt P45984);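 further: value from a kinome panel profiling assay, MAPK9 panel entry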
[14] = target: Tyrosine-protein kinase Fyn (Homo sapiens, UniProt P06241)
[15] = target: Serine/threonine-protein kinase PAK 4 (Homo sapiens, UniProt O96013);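 further: value obtained within a kinome profiling panel in which PAK4 was one of the panel members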
[16] = growth suppression of beta-catenin-knockout colon cells, dose response, cell-based, HCT116, human colon tumor (AID 1045);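 further: HCT116 colon tumor cells with beta catenin knocked out; cells exposed to compound for 60 hours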

Chain of Mitogen-activated protein kinase 9 (P45984 whole entry): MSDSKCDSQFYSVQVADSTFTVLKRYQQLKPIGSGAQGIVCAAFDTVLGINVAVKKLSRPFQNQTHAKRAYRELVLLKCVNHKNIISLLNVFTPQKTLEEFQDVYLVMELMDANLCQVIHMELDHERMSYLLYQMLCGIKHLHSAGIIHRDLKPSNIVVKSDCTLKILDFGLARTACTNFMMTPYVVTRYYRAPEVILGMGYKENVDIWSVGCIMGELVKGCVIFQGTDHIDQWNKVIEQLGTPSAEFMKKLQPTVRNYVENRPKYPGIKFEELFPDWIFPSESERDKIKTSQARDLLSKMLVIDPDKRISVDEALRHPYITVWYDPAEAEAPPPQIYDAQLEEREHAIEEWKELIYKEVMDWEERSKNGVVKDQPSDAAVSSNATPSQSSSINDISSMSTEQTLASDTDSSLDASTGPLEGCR
Chain of Leukocyte tyrosine kinase receptor (P29376 whole entry): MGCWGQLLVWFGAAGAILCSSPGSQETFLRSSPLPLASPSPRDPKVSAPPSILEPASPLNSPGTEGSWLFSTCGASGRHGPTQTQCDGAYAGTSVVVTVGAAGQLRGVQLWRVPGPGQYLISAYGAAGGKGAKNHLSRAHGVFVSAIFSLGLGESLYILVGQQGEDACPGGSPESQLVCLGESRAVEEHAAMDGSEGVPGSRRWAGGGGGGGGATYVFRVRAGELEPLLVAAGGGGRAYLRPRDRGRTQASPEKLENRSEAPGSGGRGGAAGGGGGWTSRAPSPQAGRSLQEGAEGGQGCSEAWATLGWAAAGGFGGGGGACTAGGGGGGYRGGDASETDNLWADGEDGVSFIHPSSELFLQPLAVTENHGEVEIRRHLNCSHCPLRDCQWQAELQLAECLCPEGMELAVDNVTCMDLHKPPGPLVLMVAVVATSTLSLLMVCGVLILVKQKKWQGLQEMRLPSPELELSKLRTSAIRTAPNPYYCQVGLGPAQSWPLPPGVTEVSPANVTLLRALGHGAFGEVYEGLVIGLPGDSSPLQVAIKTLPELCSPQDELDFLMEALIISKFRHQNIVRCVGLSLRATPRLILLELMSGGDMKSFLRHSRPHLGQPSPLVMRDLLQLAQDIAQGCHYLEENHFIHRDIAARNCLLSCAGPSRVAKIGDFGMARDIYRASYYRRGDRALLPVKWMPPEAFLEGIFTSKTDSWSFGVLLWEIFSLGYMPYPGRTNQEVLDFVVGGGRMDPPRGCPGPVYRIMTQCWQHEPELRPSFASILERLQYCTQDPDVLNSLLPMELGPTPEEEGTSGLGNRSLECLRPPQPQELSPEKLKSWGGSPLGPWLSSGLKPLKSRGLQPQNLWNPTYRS
Chain of Serine/threonine-protein kinase PAK 4 (O96013 whole entry): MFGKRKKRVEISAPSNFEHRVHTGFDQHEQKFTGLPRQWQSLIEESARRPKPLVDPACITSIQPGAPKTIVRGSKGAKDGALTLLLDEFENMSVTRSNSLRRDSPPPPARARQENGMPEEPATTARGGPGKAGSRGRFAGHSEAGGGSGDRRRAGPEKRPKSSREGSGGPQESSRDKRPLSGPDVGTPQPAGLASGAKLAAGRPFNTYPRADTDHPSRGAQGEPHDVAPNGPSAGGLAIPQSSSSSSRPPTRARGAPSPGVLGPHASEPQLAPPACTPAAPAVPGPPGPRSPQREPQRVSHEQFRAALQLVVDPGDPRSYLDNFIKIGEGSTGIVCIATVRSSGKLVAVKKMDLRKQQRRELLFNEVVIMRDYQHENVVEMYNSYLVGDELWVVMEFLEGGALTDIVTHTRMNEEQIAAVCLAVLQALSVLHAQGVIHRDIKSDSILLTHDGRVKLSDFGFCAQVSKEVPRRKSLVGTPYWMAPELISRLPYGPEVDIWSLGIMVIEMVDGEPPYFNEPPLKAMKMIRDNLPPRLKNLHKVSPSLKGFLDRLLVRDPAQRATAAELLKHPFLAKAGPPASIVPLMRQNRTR
Chain of Tyrosine-protein kinase ABL1 (P00519 whole entry): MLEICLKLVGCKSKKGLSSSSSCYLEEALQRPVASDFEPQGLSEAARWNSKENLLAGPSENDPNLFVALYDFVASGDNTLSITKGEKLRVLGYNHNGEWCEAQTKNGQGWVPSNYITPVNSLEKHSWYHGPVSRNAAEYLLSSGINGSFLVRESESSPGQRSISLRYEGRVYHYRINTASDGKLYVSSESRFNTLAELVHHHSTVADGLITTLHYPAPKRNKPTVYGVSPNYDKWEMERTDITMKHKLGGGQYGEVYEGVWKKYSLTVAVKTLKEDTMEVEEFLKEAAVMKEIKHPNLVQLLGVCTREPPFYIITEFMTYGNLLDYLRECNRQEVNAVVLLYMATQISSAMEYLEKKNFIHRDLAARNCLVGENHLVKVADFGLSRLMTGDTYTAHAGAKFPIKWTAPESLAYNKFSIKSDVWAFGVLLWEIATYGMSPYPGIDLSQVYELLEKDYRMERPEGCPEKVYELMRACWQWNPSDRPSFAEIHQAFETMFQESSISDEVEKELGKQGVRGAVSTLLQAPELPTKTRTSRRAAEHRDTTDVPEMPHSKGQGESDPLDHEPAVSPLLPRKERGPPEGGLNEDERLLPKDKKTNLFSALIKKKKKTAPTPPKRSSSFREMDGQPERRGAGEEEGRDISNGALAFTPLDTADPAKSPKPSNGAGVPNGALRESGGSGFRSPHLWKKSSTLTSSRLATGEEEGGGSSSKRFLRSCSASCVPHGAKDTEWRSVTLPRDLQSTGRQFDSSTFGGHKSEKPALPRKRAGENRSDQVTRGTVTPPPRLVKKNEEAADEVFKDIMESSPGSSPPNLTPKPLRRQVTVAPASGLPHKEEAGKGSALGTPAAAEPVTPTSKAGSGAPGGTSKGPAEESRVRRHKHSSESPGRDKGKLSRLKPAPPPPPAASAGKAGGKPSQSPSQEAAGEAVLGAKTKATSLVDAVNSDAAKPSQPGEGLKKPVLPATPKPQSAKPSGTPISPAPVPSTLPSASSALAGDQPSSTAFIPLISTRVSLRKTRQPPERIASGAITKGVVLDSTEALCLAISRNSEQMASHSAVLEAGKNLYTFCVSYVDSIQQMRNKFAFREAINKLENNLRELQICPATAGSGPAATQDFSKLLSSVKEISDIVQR
Chain of Dual specificity mitogen-activated protein kinase kinase 1 (Q02750 whole entry): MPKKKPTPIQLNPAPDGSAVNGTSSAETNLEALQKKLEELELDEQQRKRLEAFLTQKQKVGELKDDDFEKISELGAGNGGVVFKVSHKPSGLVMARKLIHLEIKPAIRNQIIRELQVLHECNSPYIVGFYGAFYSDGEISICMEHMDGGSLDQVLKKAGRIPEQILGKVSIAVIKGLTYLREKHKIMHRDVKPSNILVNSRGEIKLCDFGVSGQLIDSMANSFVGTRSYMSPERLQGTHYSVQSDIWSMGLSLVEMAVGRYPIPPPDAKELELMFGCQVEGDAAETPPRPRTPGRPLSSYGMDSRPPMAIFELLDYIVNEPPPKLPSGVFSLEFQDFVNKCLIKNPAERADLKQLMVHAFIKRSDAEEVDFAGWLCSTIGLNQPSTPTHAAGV
Chain of Dual specificity mitogen-activated protein kinase kinase 2 (P36507 whole entry): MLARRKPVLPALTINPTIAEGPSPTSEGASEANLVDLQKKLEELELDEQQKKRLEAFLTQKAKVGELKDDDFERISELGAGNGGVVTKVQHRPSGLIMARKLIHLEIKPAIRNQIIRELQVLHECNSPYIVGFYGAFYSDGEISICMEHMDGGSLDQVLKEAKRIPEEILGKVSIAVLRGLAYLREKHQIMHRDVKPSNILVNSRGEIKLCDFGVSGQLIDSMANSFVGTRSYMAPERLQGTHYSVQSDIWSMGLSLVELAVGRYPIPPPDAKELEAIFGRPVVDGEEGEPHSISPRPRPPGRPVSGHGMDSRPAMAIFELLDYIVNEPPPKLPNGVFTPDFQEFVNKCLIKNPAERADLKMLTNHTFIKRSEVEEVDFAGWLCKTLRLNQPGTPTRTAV
Chain of Platelet-derived growth factor receptor alpha (P16234 whole entry): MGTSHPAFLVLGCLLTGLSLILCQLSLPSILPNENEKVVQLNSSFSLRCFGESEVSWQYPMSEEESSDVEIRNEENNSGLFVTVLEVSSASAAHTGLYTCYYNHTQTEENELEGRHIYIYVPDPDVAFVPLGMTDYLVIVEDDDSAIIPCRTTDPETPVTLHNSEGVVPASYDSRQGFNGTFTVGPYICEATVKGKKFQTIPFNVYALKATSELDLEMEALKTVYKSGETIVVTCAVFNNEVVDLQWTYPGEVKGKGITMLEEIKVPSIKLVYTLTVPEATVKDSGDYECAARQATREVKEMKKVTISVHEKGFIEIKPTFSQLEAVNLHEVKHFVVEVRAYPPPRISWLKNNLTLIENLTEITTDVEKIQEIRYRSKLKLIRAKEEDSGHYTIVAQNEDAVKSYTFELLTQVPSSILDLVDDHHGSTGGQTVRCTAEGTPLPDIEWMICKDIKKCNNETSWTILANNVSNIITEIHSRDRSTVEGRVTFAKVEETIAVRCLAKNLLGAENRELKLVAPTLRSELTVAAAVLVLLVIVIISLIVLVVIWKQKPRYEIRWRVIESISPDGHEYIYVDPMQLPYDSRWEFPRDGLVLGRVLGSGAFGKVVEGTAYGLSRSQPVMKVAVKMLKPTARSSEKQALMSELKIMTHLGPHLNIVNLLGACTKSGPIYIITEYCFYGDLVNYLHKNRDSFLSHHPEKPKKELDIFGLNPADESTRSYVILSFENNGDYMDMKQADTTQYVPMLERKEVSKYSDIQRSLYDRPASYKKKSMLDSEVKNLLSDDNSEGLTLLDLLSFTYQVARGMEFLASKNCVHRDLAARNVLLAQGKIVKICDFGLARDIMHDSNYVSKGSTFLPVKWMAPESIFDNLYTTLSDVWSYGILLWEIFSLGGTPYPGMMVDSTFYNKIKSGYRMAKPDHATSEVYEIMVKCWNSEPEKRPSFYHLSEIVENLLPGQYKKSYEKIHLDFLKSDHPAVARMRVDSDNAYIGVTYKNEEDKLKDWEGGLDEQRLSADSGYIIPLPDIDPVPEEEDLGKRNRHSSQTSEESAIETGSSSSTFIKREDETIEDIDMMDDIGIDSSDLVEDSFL

Row | SMILES | Ki [1] | Ki [2] | Ki [3] | Ki [4] | Ki [5] | Ki (Activin receptor type-1) | Ki [6] | Ki [7] | Ki [8] | Ki [9] | Ki [10] | Ki (Aurora kinase B) | Ki [11] | Ki [12] | Ki [13] | Ki [14] | Ki [15] | EC50 [16] | also measured
1 | NC1CCC(Nc2nc(Cl)cc(-c3c[nH]c4ncccc34)n2)CC1 (stereo not given) | 20 nM (active) | 1580 nM (active) | 3.16 nM (active) | 2 nM (active) | 126 nM (active) | 631 nM (active) | 1260 nM (active) | 794 nM (active) | > 6310 nM (inactive) | 6.31 nM (active) | 2000 nM (active) | 251 nM (active) | 31.6 nM (active) | 2000 nM (active) | 3160 nM (active) | > 6310 nM (inactive) | 39.8 nM (active) |  | pKi [1]: 7.7; pKi [2]: 5.8; pKi [3]: 8.5; pKi [4]: 8.7; pKi [5]: 6.9; pKi (Activin receptor type-1): 6.2; pKi [6]: 5.9; pKi [7]: 6.1; pKi [9]: 8.2; pKi (Aurora kinase B): 6.6; pKi [11]: 7.5; pKi [12]: 5.7; pKi [13]: 5.5; pKi [15]: 7.4
2 | CCOC(=O)c1ccc(NC2=CC(=O)C(=O)c3ccccc32)cc1 |  |  |  |  |  |  |  |  |  |  |  |  |  |  |  |  |  | 13800 nM (active) | 
3 | OC(CNCCC1C=Nc2ccccc21)Cn1c2ccc(Cl)cc2c2cc(Cl)ccc21 (stereo not given) |  |  |  |  |  |  |  |  |  |  |  |  |  |  |  |  |  | 2700 nM (active) | 
4 | O=C(O)C1CN(Cc2ccc(OCc3ccccc3)cc2Cl)C1 | > 3160 nM (inactive) | > 2510 nM (inactive) | 1260 nM (active) | > 2510 nM (inactive) | > 2510 nM (inactive) | 126 nM (active) | > 2510 nM (inactive) | > 2510 nM (inactive) | > 6310 nM (inactive) | > 3160 nM (inactive) | > 3160 nM (inactive) | > 3980 nM (inactive) | > 3980 nM (inactive) | > 3980 nM (inactive) | > 3980 nM (inactive) | > 6310 nM (inactive) | > 5010 nM (inactive) |  | 
